Results reported in US9376442B2, “Methylpyrrolopyrimidinecarboxamides” (Takeda GmbH, priority 2009, dated 2016).

Columns and labels:
PDE5A1 = target: T1, PDE5A1 (Homo sapiens, UniProt O76074); assay: Inhibition of type 5 phosphodiesterase (PDE5) activity, modified SPA test with human platelet lysate; type: biochemical; details: 0.5 μM cGMP, read-out: PDE5A1 inhibitory values [measured as −log IC50 (mol/l)] (converted)
T1 construct: from tissue; host or cells: human platelets from fresh donor blood (10,000 x g supernatant of sonicated lysate)
Summary of the method: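 Enzyme source is lysate from human platelets (10,000 g supernatant). Compound preincubated 5 min at 37° C in Tris pH 7.4 containing 1 μM motapizone and 10 nM of a PDE2 inhibitor. Reaction started with 0.5 μM cGMP ([3H] tracer) and run 15 min; SPA read-out, IC50 by non-linear regression.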

PDE4B1 = target: T2, PDE4B1 (Homo sapiens, UniProt Q07343); assay: Inhibition of type 4 phosphodiesterase (PDE4) activity, modified SPA test with recombinant PDE4B1 expressed in SF21 insect cells; type: biochemical; details: recombinant PDE4B1, 0.5 μM cAMP, read-out: PDE4B1 inhibitory values [measured as −log IC50 (mol/l)] (converted)
T2 construct: made in house; host or cells: SF21 insect cells (baculovirus; pCRBac vector), 1000 x g supernatant of homogenate
Summary of the method: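 Modified [3H]cAMP SPA using 1000×g supernatant of SF21 cells expressing recombinant human PDE4B1, in 20 mM Tris pH 7.4, 0.1 mg/ml BSA, 5 mM Mg2+, 0.5 μM cAMP. After 5 min preincubation at 37 °C, 15 min reaction, stopped with SPA beads plus IBMX; IC50 by non-linear regression.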

T2 sequence (Q07343 whole entry): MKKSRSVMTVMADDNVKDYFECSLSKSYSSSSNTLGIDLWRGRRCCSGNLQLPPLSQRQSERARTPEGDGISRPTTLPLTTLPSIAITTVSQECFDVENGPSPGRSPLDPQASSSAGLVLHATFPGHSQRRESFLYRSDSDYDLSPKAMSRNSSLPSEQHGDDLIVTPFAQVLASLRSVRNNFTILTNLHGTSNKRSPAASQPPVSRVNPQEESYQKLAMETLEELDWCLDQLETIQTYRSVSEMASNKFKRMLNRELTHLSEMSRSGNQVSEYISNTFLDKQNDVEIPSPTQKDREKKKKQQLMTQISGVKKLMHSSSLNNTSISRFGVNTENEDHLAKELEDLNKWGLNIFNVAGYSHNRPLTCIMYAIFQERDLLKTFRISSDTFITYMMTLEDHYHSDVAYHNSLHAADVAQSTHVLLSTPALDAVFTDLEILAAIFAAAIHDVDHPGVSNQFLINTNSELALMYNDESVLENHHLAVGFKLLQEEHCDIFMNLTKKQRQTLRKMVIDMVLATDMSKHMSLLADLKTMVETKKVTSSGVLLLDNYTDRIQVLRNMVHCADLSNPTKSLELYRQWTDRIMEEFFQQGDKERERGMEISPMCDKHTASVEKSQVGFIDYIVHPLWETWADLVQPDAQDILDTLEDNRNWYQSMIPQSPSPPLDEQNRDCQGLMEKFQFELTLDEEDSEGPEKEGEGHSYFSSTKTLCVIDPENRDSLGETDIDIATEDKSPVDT

Row | SMILES | IC50 (PDE5A1) [nM] | IC50 (PDE4B1) [nM]
1 | COCC(=O)N[C@H]1CC[C@H](NC(=O)c2c(C)[nH]c3c(-c4cc(C(F)F)ccc4OCC4CC4)ncnc23)[C@@H](C)C1 (relative stereo) [Example P141, 4-[2-(Cyclopropylmethoxy)-5-(difluoromethyl)phenyl]-N-{(1S*,2S*,4S*)-4-[(methoxyacetyl)amino]-2-methylcyclohexyl}-6-methyl-5H-pyrrolo[3,2-d]pyrimidine-7-carboxamide] | < 1 | < 100
2 | CC(=O)N1CCC(NC(=O)c2c(C)[nH]c3c(-c4cc(C)ccc4OCC4CC4)ncnc23)CC1 [Example E81, N-(1-Acetylpiperidin-4-yl)-4-[2-(cyclopropylmethoxy)-5-methylphenyl]-6-methyl-5H-pyrrolo[3,2-d]pyrimidine-7-carboxamide] | < 1 | < 100
3 | Cc1[nH]c2c(-c3cc(F)ccc3OCC3CC3)ncnc2c1C(=O)N[C@H]1CC[C@H](NC(=O)CO)CC1 [Example F25, 4-[2-(Cyclopropylmethoxy)-5-fluorophenyl]-N-[trans-4-(glycoloylamino)cyclohexyl]-6-methyl-5H-pyrrolo[3,2-d]pyrimidine-7-carboxamide] | < 1 | < 100
4 | Cc1ccc(OCC2CC2)c(-c2ncnc3c(C(=O)N[C@H]4CCC[C@H]4O)c(C)[nH]c23)c1 [Example E177, 4-[2-(Cyclopropylmethoxy)-5-methylphenyl]-N-[(1S,2R)-2-hydroxycyclopentyl]-6-methyl-5H-pyrrolo[3,2-d]pyrimidine-7-carboxamide] | 1 to 10 | 100 to 1000
5 | COCC(=O)N[C@H]1CC[C@H](NC(=O)c2c(C)[nH]c3c(-c4cc(C(F)F)ccc4OCC4CC4)ncnc23)C[C@H]1F (relative stereo) [Example P201, 4-[2-(Cyclopropylmethoxy)-5-(difluoromethyl)phenyl]-N-{(1S*,3R*,4S*)-3-fluoro-4-[(methoxyacetyl)amino]cyclohexyl}-6-methyl-5H-pyrrolo[3,2-d]pyrimidine-7-carboxamide] | < 1 | < 100
6 | CC(=O)N[C@H]1CC[C@H](NC(=O)c2c(C)[nH]c3c(-c4cc(C(C)C)ccc4OCC4CC4)ncnc23)CC1 [Example E159, N-[trans-4-(Acetylamino)cyclohexyl]-4-[2-(cyclopropylmethoxy)-5-(propan-2-yl)phenyl]-6-methyl-5H-pyrrolo[3,2-d]pyrimidine-7-carboxamide] | < 1 | 100 to 1000
7 | Cc1[nH]c2c(-c3cc(C(F)(F)F)ccc3OCC3CC3)ncnc2c1C(=O)N[C@H]1CC[C@H](NC(=O)CO)CC1 [Example F59, 4-[2-(Cyclopropylmethoxy)-5-(trifluoromethyl)phenyl]-N-{trans-4-[(hydroxyacetyl)amino]cyclohexyl}-6-methyl-5H-pyrrolo[3,2-d]pyrimidine-7-carboxamide] | < 1 | < 100
8 | CCC(=O)N[C@H]1CC[C@H](NC(=O)c2c(C)[nH]c3c(-c4cc(F)ccc4OCC4CC4)ncnc23)CC1 [Example E42, 4-[2-(Cyclopropylmethoxy)-5-fluorophenyl]-6-methyl-N-[trans-4-(propionylamino)cyclohexyl]-5H-pyrrolo[3,2-d]pyrimidine-7-carboxamide] | < 1 | < 100
9 | Cc1[nH]c2c(-c3cc(C(F)(F)F)ccc3OCC3CC3)ncnc2c1C(=O)NC1CCN(C(=O)CO)CC1 [Example F57, 4-[2-(Cyclopropylmethoxy)-5-(trifluoromethyl)phenyl]-N-[1-(hydroxyacetyl)piperidin-4-yl]-6-methyl-5H-pyrrolo[3,2-d]pyrimidine-7-carboxamide] | < 1 | < 100
10 | CCC(=O)N[C@H]1CC[C@H](NC(=O)c2c(C)[nH]c3c(-c4cc(CC)ccc4OCC4CC4)ncnc23)CC1 [Example E149, 4-[2-(Cyclopropylmethoxy)-5-ethylphenyl]-6-methyl-N-[trans-4-(propanoylamino)cyclohexyl]-5H-pyrrolo[3,2-d]pyrimidine-7-carboxamide] | < 1 | < 100
11 | CC(=O)N[C@@H]1CC[C@@H](NC(=O)c2c(C)[nH]c3c(-c4cc(C(F)F)ccc4OCC4CC4)ncnc23)[C@H](F)C1 (relative stereo) [Example P159, N-[(1R*,2R*,4R*)-4-(Acetylamino)-2-fluorocyclohexyl]-4-[2-(cyclopropylmethoxy)-5-(difluoromethyl)phenyl]-6-methyl-5H-pyrrolo[3,2-d]pyrimidine-7-carboxamide] | < 1 | < 100
12 | COCC(=O)N[C@H]1CC[C@H](NC(=O)c2c(C)[nH]c3c(-c4cc(C(F)F)ccc4OCC4CC4)ncnc23)C[C@@H]1C (relative stereo) [Example P191, 4-[2-(Cyclopropylmethoxy)-5-(difluoromethyl)phenyl]-N-{(1S*,3S*,4S*)-4-[(methoxyacetyl)amino]-3-methylcyclohexyl}-6-methyl-5H-pyrrolo[3,2-d]pyrimidine-7-carboxamide] | < 1 | < 100
13 | CC(=O)N[C@H]1CC[C@H](NC(=O)c2c(C)[nH]c3c(-c4cc(C(F)F)ccc4OCC4CC4)ncnc23)C[C@H]1F (relative stereo) [Example P199, N-[(1S*,3R*,4S*)-4-(Acetylamino)-3-fluorocyclohexyl]-4-[2-(cyclopropylmethoxy)-5-(difluoromethyl)phenyl]-6-methyl-5H-pyrrolo[3,2-d]pyrimidine-7-carboxamide] | < 1 | < 100
14 | CC(=O)N[C@H]1CC[C@H](NC(=O)c2c(C)[nH]c3c(-c4cc(C(F)F)ccc4OCC4CC4)ncnc23)CC1 [Example P6, N-[trans-4-(Acetylamino)cyclohexyl]-4-[2-(cyclopropylmethoxy)-5-(difluoromethyl)phenyl]-6-methyl-5H-pyrrolo[3,2-d]pyrimidine-7-carboxamide] | < 1 | < 100
15 | CCC(=O)N[C@H]1CC[C@H](NC(=O)c2c(C)[nH]c3c(-c4cc(C(F)F)ccc4OCC4CC4)ncnc23)C[C@@H]1F (relative stereo) [Example P210, 4-[2-(Cyclopropylmethoxy)-5-(difluoromethyl)phenyl]-N-[(1S*,3S*,4S*)-3-fluoro-4-(propanoylamino)cyclohexyl]-6-methyl-5H-pyrrolo[3,2-d]pyrimidine-7-carboxamide] | < 1 | < 100
16 | Cc1[nH]c2c(-c3cc(C(F)(F)F)ccc3OCC3CC3)ncnc2c1C(=O)N[C@H]1CC[C@H](NC(=O)[C@H](C)O)CC1 [Example F60, 4-[2-(Cyclopropylmethoxy)-5-(trifluoromethyl)phenyl]-N-(trans-4-{[(2S)-2-hydroxypropanoyl]amino}cyclohexyl)-6-methyl-5H-pyrrolo[3,2-d]pyrimidine-7-carboxamide] | < 1 | < 100
17 | CCC(=O)N[C@@H]1CC[C@@H](NC(=O)c2c(C)[nH]c3c(-c4cc(C(F)F)ccc4OCC4CC4)ncnc23)[C@H](F)C1 (relative stereo) [Example P160, 4-[2-(Cyclopropylmethoxy)-5-(difluoromethyl)phenyl]-N-[(1R*,2R*,4R*)-2-fluoro-4-(propanoylamino)cyclohexyl]-6-methyl-5H-pyrrolo[3,2-d]pyrimidine-7-carboxamide] | < 1 | < 100
18 | CCC(=O)N1CCC(NC(=O)c2c(C)[nH]c3c(-c4cc(OC)ccc4OCC4CC4)ncnc23)CC1 [Example E67, 4-[2-(Cyclopropylmethoxy)-5-methoxyphenyl]-6-methyl-N-(1-propionylpiperidin-4-yl)-5H-pyrrolo[3,2-d]pyrimidine-7-carboxamide] | < 1 | 100 to 1000
19 | CC(=O)N[C@H]1CC[C@@H](NC(=O)c2c(C)[nH]c3c(-c4cc(C)ccc4OCC4CC4)ncnc23)CC1 [Example E87, N-[cis-4-(acetylamino)cyclohexyl]-4-[2-(cyclopropylmethoxy)-5-methylphenyl]-6-methyl-5H-pyrrolo[3,2-d]pyrimidine-7-carboxamide] | < 1 | < 100
20 | COCC(=O)N1C[C@@H](NC(=O)c2c(C)[nH]c3c(-c4cc(C(F)F)ccc4OCC4CC4)ncnc23)C[C@@H]1C [Example P26, 4-[2-(Cyclopropylmethoxy)-5-(difluoromethyl)phenyl]-N-[(3S,5S)-1-(methoxyacetyl)-5-methylpyrrolidin-3-yl]-6-methyl-5H-pyrrolo[3,2-d]pyrimidine-7-carboxamide] | 1 to 10 | < 100
21 | CCc1ccc(OCC2CC2)c(-c2ncnc3c(C(=O)NC4CCN(C(=O)COC)CC4)c(C)[nH]c23)c1 [Example E147, 4-[2-(Cyclopropylmethoxy)-5-ethylphenyl]-N-[1-(methoxyacetyl)piperidin-4-yl]-6-methyl-5H-pyrrolo[3,2-d]pyrimidine-7-carboxamide] | < 1 | 100 to 1000
22 | CC(=O)N[C@H]1CC[C@H](NC(=O)c2c(C)[nH]c3c(-c4cc(F)ccc4OCC4CC4)ncnc23)CC1 [Example E41, N-(trans-4-acetamidocyclohexyl)-4-[2-(cyclopropylmethoxy)-5-fluorophenyl]-6-methyl-5H-pyrrolo[3,2-d]pyrimidine-7-carboxamide] | < 1 | < 100
